Publication PMC10420250, “Assessment of Purity, Stability, and Pharmacokinetics of NGP-1, a Novel Prodrug of GS441254 with Potential Anti-SARS-CoV-2 Activity, Using Liquid Chromatography” (Molecules, 2023)

Columns and labels:
[1] = Stability of NGP-1 in artificial digestive juices (HPLC-DAD); assay type: in vitro ADME
Source text: Esterification is the predominant reaction used for the generation of prodrugs, owing to the facile hydrolysis of esters by various and ubiquitous esterases present in the various matrices. However, the presence of esters, particularly cyclic lactones, may result in instability in acidic, basic, or esterase environments. In this study, HPLC-DAD was employed to assess the stability of NGP-1 in different artificial digestive juices. The test samples were collected at various time intervals subsequent to dissolving NGP-1 in artificial gastric juice (diluted HCl with pepsin, pH = 1.5) and artificial intestinal juice (PBS with trypsin, pH = 6.8).
Mobile phase A consisted of a phosphoric acid solution, while mobile phase B consisted of ACN. Gradient elution was employed to separate the components under the following conditions: 0–4 min, 30–50% B; 4–10 min, 50% B. The specific parameters for liquid chromatography are presented in Table 2. […] Then, the content of the objective analytes in each sample was calculated using the external standard method.

[2] = Pharmacokinetic study in rats via gavage administration, plasma GS441 by LC-MS/MS; assay type: in vivo, Sprague-Dawley rats; details: equimolar doses
Procedure: A pharmacokinetic study was carried out in vivo using Sprague-Dawley rats to assess the behavior of NGP-1 when administered orally through the gastrointestinal route. The rats were randomly categorized into two groups (n = 6) and subjected to a 12 h overnight fast prior to oral administration. […] After administration, 0.5 mL of orbital blood was collected at specific time intervals in an EP tube with heparin moisturizing.
All the blood samples were promptly centrifuged at 4 °C to separate the upper plasma. A volume of 50 µL of plasma was subsequently transferred to a tube pre-filled with 450 µL of protein precipitant (H2O:ACN:MeOH = 1:4:4 containing 20 ng/mL of QX). […] After thorough mixing, the samples underwent high-speed centrifugation. The supernatants were extracted and centrifugated again. The resulting supernatants were collected and transferred into a vial for subsequent analysis.
The AB SCIEX QTRAP®4500 instrument, which comprised an LC system (ExionLC^TM, SCIEX, Framingham, MA, USA) and a triple-quadrupole mass spectrometer with an ESI interface, was used for the experiment. […] The data were acquired and analyzed using Analyst 1.7.3 coupled with MultiQuant 3.0.3 (SCIEX).

several viruses = details: in vitro; cited from earlier work

## CC(C)C(=O)OC[C@H]1O[C@@](C#N)(c2ccc3c(N)ncnn23)[C@@H]2OC(=O)O[C@@H]21 [NGP-1]
[1]; AGJ, diluted HCl with pepsin, pH = 1.5
  Degradation rate in artificial gastric juice: accelerate significantly
[1]; AIJ, PBS with trypsin, pH 6.8
  Stability in artificial intestinal juice: relatively stable
[2]
  AUC0–∞ of converted GS441 relative to directly administered GS441: approximately four
  Frel / oral bioavailability of NGP-1 relative to GS441: approximately four and four

## CCC(CC)COC(=O)[C@H](C)N[P@](=O)(OC[C@H]1O[C@@](C#N)(c2ccc3c(N)ncnn23)[C@H](O)[C@@H]1O)Oc1ccccc1 [RDV, remdesivir]
Several viruses
  EC50 comparison GS441 vs RDV: more potent

## N#C[C@@]1(c2ccc3c(N)ncnn23)O[C@H](CO)[C@@H](O)[C@H]1O [GS441]
Several viruses
  EC50 comparison GS441 vs RDV: higher EC50 than RDV
